Data on one compound can be found in US11701377B2, “Methods for treating cancers by prodrugs of clofarabine” (priority 2016, dated 2023).

Data set [1] relates to human K562 chronic myelogenous leukemia cell line. As to the kind of experiment: In Vitro Anti-proliferative Assay Using Human K562 Leukemia Cell Line. The format is cell-based. The settings on record: K562 cells, 72 hours, 37° C., 5% CO2, triplicates, cell viability. The method, then:
Method H: In Vitro Anti-proliferative Assay Using Human K562 Leukemia Cell Line. A representative compound (Example 1, Compound 3) was assessed for its anti-proliferative activity against human K562 chronic myelogenous leukemia cell line at various concentrations ranging from 10 μM to 0.005 μM in triplicates. Incubations were carried out at 37° C., 5% CO2, under humidified atmosphere for 72 hours. After incubation, cell viability was examined.

A short description of data set [2]: In Vitro Metabolic Conversion Assay Using Human Plasma. The format is in vitro ADME. The settings on record: incubation with human plasma at 15 µg/mL, 37° C., 60 minutes, HPLC. How it is done: Method F: In Vitro Metabolic Conversion Assay Using Human Plasma. A representative compound (Example 1, Compound 3) was incubated with human plasma at 15 µg/mL. Incubations were carried out at 37° C. in a shaker water bath. Samples were taken at 0, 10, 30 and 60 minutes, quenched with 25 μL of trifluoroacetic acid, and then centrifuged at 25,000 g for 3 minutes at 4° C. The supernatant of each sample was collected and analyzed using HPLC to monitor the formation of clofarabine. FIG. 1 illustrates the results for incubations performed at 37° C.

As usually defined, the IC50 is the concentration that inhibits the measured activity by half. A lower IC50 goes with inhibition by little substance. Turning to `CCOC(=O)OC[C@H]1O[C@@H](n2cnc3c(N)nc(Cl)nc32)[C@@H](F)[C@@H]1O` [Compound 3, (2R,3R,4S,5R)-5-(6-Amino-2-chloropurin-9-yl)-2-(ethoxycarbonyloxymethyl)-4-fluoro-oxolan-3-ol], half-maximal inhibition in data set [1] (IC50) required 324 ± 18 nM. In data set [2], the “metabolic conversion in human plasma (depletion of prodrug, formation of clofarabine)” value is reported as “depletion of 3 was observed along with the formation of clofarabine as its metabolite”.
